# Where two headings read alike, the source gives them in different places.
# Assays:
# Klebsiella pneumoniae = experiment: MIC, micro-dilution broth method (CLSI); assay type: cell-based; conditions: Klebsiella pneumoniae, read-out: MIC
# Enterobacter cloacae = experiment: MIC, micro-dilution broth method (CLSI); assay type: cell-based
# Aqueous solubility limit = assay type: physicochemical; conditions: cation-adjusted Mueller Hinton broth (MIC assay medium); limit to which compounds were tested in MIC assays
# Escherichia coli = experiment: Resistance frequency, large inoculum method; assay type: cell-based; conditions: E. coli ΔtolC JW5503, 32×MIC
# Method: Selection of resistant mutants. Resistant mutants were selected using the large inoculum method. Briefly, E. coli BW25113, K. pneumoniae ATCC 27736, or E. cloacae ATCC 29893 (˜1.0×10^7 c.f.u.) was plated on 100-mm plates of Luria Bertani agar containing 8, 16, 32, or 64 μg/mL, lolamycin. For E. coli ΔtolC (JW5503), ˜1.0×10^7 c.f.u. was plated on 100-mm plates of Luria Bertani agar containing 0.063, 0.13, 0.25, 0.5 μg/mL lolamycin. Colonies were visible after incubating at 37° C. for 48 h. Resistant colonies were confirmed by growing colonies in selective media with the same concentration of lolamycin.
# E. coli AR0349 [1] = experiment: Acute pneumonia bacterial burden model; assay type: in vivo, CD-1 mice; conditions: 100 mg/kg IP twice a day for 3 days, lungs, 72 h post-infection
# E. coli AR0349 [2] = experiment: Bacterial sepsis survival model; assay type: in vivo, CD-1 mice; conditions: 100 mg/kg IP twice daily for 3 days
# [3] = tested on: clinical isolates of E. coli, K. pneumoniae, and E. cloacae; experiment: Susceptibility of panel of multidrug-resistant clinical isolates
structure (smiles),measurement,setting,value
"Fc1ccc(COc2cccc(-c3n[nH]cc3-c3ccncc3)c2)cc1 [Compound 2, 4-(3-(3-((4-fluorobenzyl)oxy)phenyl)-1H-pyrazol-4-yl)pyridine]",MIC,Klebsiella pneumoniae; K. pneumoniae AR0049,> 32 µg/mL
same,MIC,Klebsiella pneumoniae; K. pneumoniae AR0066,> 32 µg/mL
same,MIC,Klebsiella pneumoniae; K. pneumoniae AR0068,> 32 µg/mL
same,MIC,Klebsiella pneumoniae; K. pneumoniae AR0075,> 32 µg/mL
same,MIC,Klebsiella pneumoniae; K. pneumoniae AR0076,> 32 µg/mL
same,MIC,Klebsiella pneumoniae; K. pneumoniae AR0079,> 32 µg/mL
same,MIC,Klebsiella pneumoniae; K. pneumoniae AR0080,> 32 µg/mL
same,MIC,Klebsiella pneumoniae; K. pneumoniae AR0087,> 32 µg/mL
same,MIC,Klebsiella pneumoniae; K. pneumoniae AR0098,> 32 µg/mL
same,MIC,Klebsiella pneumoniae; K. pneumoniae AR0106,> 32 µg/mL
same,MIC,Klebsiella pneumoniae; K. pneumoniae AR0107,> 32 µg/mL
same,MIC,Klebsiella pneumoniae; K. pneumoniae AR0109,> 32 µg/mL
same,MIC,Klebsiella pneumoniae; K. pneumoniae AR0112,> 32 µg/mL
same,MIC,Klebsiella pneumoniae; K. pneumoniae AR0113,> 32 µg/mL
same,MIC,Klebsiella pneumoniae; K. pneumoniae AR0115,> 32 µg/mL
same,MIC,Klebsiella pneumoniae; K. pneumoniae AR0117,> 32 µg/mL
same,MIC,Klebsiella pneumoniae; K. pneumoniae AR0120,> 32 µg/mL
same,MIC,Klebsiella pneumoniae; K. pneumoniae AR0125,> 32 µg/mL
same,MIC,Klebsiella pneumoniae; K. pneumoniae AR0126,> 32 µg/mL
same,MIC,Klebsiella pneumoniae; K. pneumoniae AR0129,> 32 µg/mL
same,MIC,Klebsiella pneumoniae; K. pneumoniae AR0135,> 32 µg/mL
same,MIC,Klebsiella pneumoniae; K. pneumoniae AR0138,> 32 µg/mL
same,MIC,Klebsiella pneumoniae; K. pneumoniae AR0139,> 32 µg/mL
same,MIC,Klebsiella pneumoniae; K. pneumoniae AR0140,> 32 µg/mL
same,MIC,Klebsiella pneumoniae; K. pneumoniae AR0141,> 32 µg/mL
same,MIC,Klebsiella pneumoniae; K. pneumoniae AR0142,> 32 µg/mL
same,MIC,Klebsiella pneumoniae; K. pneumoniae AR0143,> 32 µg/mL
same,MIC,Klebsiella pneumoniae; K. pneumoniae AR0145,> 32 µg/mL
same,MIC,Klebsiella pneumoniae; K. pneumoniae AR0146,> 32 µg/mL
same,MIC,Klebsiella pneumoniae; K. pneumoniae AR0148,> 32 µg/mL
same,MIC,Klebsiella pneumoniae; K. pneumoniae AR0152,> 32 µg/mL
same,MIC,Klebsiella pneumoniae; K. pneumoniae AR0153,> 32 µg/mL
same,MIC,Klebsiella pneumoniae; K. pneumoniae AR0158,> 32 µg/mL
same,MIC,Klebsiella pneumoniae; K. pneumoniae AR0160,> 32 µg/mL
same,MIC,Klebsiella pneumoniae; K. pneumoniae AR0347,> 32 µg/mL
same,MIC,Klebsiella pneumoniae; K. pneumoniae AR0542,> 32 µg/mL
same,MIC,Klebsiella pneumoniae; K. pneumoniae AR0548,> 32 µg/mL
same,MIC,Klebsiella pneumoniae; K. pneumoniae AR0550,> 32 µg/mL
same,MIC,Klebsiella pneumoniae; K. pneumoniae AR0552,> 32 µg/mL
same,MIC,Klebsiella pneumoniae; K. pneumoniae AR0553,> 32 µg/mL
same,MIC,Klebsiella pneumoniae; K. pneumoniae AR0554,> 32 µg/mL
same,MIC,Klebsiella pneumoniae; K. pneumoniae AR0555,> 32 µg/mL
same,MIC,Klebsiella pneumoniae; K. pneumoniae AR-0040,> 32 µg/mL
same,MIC,Enterobacter cloacae; E. cloacae AR-0163,>32 µg/mL
same,MIC,Enterobacter cloacae; E. cloacae ATCC BAA-2468,>32 µg/mL
same,MIC,"Enterobacter cloacae; Enterobacter cloacae, ATCC29893, E. cloacae ATCC 29893, read-out: MIC",> 32 µg/mL
same,MIC,"Enterobacter cloacae; Enterobacter cloacae, ATCCBAA2341, E. cloacae ATCC BAA-2341, read-out: MIC",> 32 µg/mL
same,MIC,"Enterobacter cloacae; Enterobacter cloacae, ATCCBAA2468, E. cloacae ATCC BAA-2468, read-out: MIC",> 32 µg/mL
same,MIC,"Enterobacter cloacae; Enterobacter cloacae, E. cloacae AR0032, read-out: MIC",> 32 µg/mL
same,MIC,"Enterobacter cloacae; Enterobacter cloacae, E. cloacae AR0038, read-out: MIC",> 32 µg/mL
same,MIC,"Enterobacter cloacae; Enterobacter cloacae, E. cloacae AR0050, read-out: MIC",8 µg/mL
same,MIC,"Enterobacter cloacae; Enterobacter cloacae, E. cloacae AR0053, read-out: MIC",> 32 µg/mL
same,MIC,"Enterobacter cloacae; Enterobacter cloacae, E. cloacae AR0060, read-out: MIC",16 µg/mL
same,MIC,"Enterobacter cloacae; Enterobacter cloacae, E. cloacae AR0065, read-out: MIC",16 µg/mL
same,MIC,"Enterobacter cloacae; Enterobacter cloacae, E. cloacae AR0072, read-out: MIC",> 32 µg/mL
same,MIC,"Enterobacter cloacae; Enterobacter cloacae, E. cloacae AR0073, read-out: MIC",> 32 µg/mL
same,MIC,"Enterobacter cloacae; Enterobacter cloacae, E. cloacae AR0093, read-out: MIC",> 32 µg/mL
same,MIC,"Enterobacter cloacae; Enterobacter cloacae, E. cloacae AR0132, read-out: MIC",> 32 µg/mL
same,MIC,"Enterobacter cloacae; Enterobacter cloacae, E. cloacae AR0136, read-out: MIC",> 32 µg/mL
same,MIC,"Enterobacter cloacae; Enterobacter cloacae, E. cloacae AR0154, read-out: MIC",8 µg/mL
same,MIC,"Enterobacter cloacae; Enterobacter cloacae, E. cloacae AR0164, read-out: MIC",> 32 µg/mL
same,MIC,"Enterobacter cloacae; Enterobacter cloacae, E. cloacae AR0544, read-out: MIC",> 32 µg/mL
same,MIC,"Enterobacter cloacae; Enterobacter cloacae, E. cloacae AR0545, read-out: MIC",> 32 µg/mL
same,MIC,"Enterobacter cloacae; Enterobacter cloacae, E. cloacae AR-0163, read-out: MIC",> 32 µg/mL
same,solubility,Aqueous solubility limit,32 µg/mL
same,resistance frequency,Escherichia coli,9.2×10^−7
same,reduction in bacterial burden,E. coli AR0349 [1],fared poorly
same,mice with septic infection rescued (survival),E. coli AR0349 [2],fared poorly
same,activity against MDR clinical isolates,[3],only minimal activity
